Assay results from PubChem BioAssay (NCI).
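Five concentrations, 48 hours, 96-well plates. At the GI50, growth is halved. TGI denotes the concentration required for complete inhibition of growth.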

How the values were obtained:
Test in all cases: inhibition of tumour cell growth, NCI panel, 48 h
RPMI-8226 leukemia = test system: RPMI-8226 leukemia
IGROV1 ovarian = test system: IGROV1 ovarian
OVCAR-8 ovarian = test system: OVCAR-8 ovarian
KM12 colon = test system: KM12 colon
HT29 colon = test system: HT29 colon
ACHN renal = test system: ACHN renal
K-562 leukemia = test system: K-562 leukemia
SK-OV-3 ovarian = test system: SK-OV-3 ovarian
M14 melanoma = test system: M14 melanoma
HCT-116 colon = test system: HCT-116 colon

Compound	GI50 (RPMI-8226 leukemia) [µM]	TGI (RPMI-8226 leukemia) [µM]	GI50 (IGROV1 ovarian) [µM]	TGI (IGROV1 ovarian) [µM]	GI50 (OVCAR-8 ovarian) [µM]	TGI (OVCAR-8 ovarian) [µM]	GI50 (KM12 colon) [µM]	TGI (KM12 colon) [µM]	GI50 (HT29 colon) [µM]	GI50 (ACHN renal) [µM]	TGI (ACHN renal) [µM]	GI50 (K-562 leukemia) [µM]	TGI (K-562 leukemia) [µM]	GI50 (SK-OV-3 ovarian) [µM]	TGI (SK-OV-3 ovarian) [µM]	GI50 (M14 melanoma) [µM]	TGI (M14 melanoma) [µM]	GI50 (HCT-116 colon) [µM]	TGI (HCT-116 colon) [µM]	TGI (HT29 colon) [µM]
CCCC/C(=N\N=C(N)N)c1ccc(F)cc1	2.67	17.4	5.06	20.9	3.61	15.2	2.79	14	2.23	5.33	17.5	0.469	11.2	2.61	11	2.35	10.4	3.51	14.6	–
CC[C@]12C=CCN3CC[C@]4(C(=C(C(=O)OC)C1)Nc1cc(O)ccc14)[C@@H]32	26.2	79.8	19.1	57.3	24.5	68.8	13.1	30.6	19.9	18.5	41.4	7.59	> 100	–	–	13.9	34.3	16.2	34.3	63.1
O=C1[C@H]2C(c3ccccc3)=NN(C(=O)c3ccccc3)[C@H]2C(=O)N1c1ccccc1	–	> 100	–	> 100	–	> 100	–	> 100	–	–	> 100	–	> 100	–	> 100	–	> 100	–	> 100	> 100
O=C1OCC(C(=O)c2cccc(O)c2)C1=O (stereo not given)	–	> 100	–	> 100	–	> 100	–	> 100	–	–	> 100	–	–	–	> 100	–	> 100	–	> 100	> 100
COc1cc2ccn3c4cc(OC)c(OC)cc4cc3c2cc1OC	–	> 100	–	–	–	> 100	–	> 100	–	–	> 100	–	> 100	–	> 100	–	> 100	–	> 100	> 100
CC1=C(C#N)C(N)=C2C(C)=C(C#N)C(N)=C12	–	> 100	–	> 100	–	> 100	–	> 100	–	–	–	–	> 100	–	> 100	–	> 100	–	> 100	> 100
CC(C)OP(=O)(CP(=O)(OC(C)C)OC(C)C)OC(C)C.[CH3][Sn]([Br])([Br])[Br]	> 100	> 100	> 100	> 100	> 100	> 100	> 100	> 100	> 100	> 100	> 100	> 100	> 100	> 100	> 100	–	–	–	–	> 100
COc1cc2c3c(c1OC)-c1ccccc1C(C(OC(C)=O)c1ccccc1)C3N(C)CC2 (stereo not given)	–	80.7	–	> 100	–	> 100	–	> 100	–	–	> 100	–	–	–	> 100	–	> 100	–	> 100	> 100
O=C(Oc1c(I)ccccc1=O)c1ccc([N+](=O)[O-])cc1	–	88	–	29.2	–	65.1	–	35.6	–	–	68.5	–	61.9	–	–	–	73.3	–	> 100	24.8
CC(C)OP(=O)(OC(C)C)C(N(C)C)P(=O)(OC(C)C)OC(C)C.[Cl][Sn]([Cl])([Cl])[c]1ccccc1	1.84	5	3.61	92.7	3.16	13.2	3.6	> 100	0.923	3.3	> 100	2.26	5.62	3.67	17.3	–	–	–	–	12.8
O=C1c2cccnc2C(=O)c2c1c(C(=O)OCCCN1CCOCC1)c1ccccn21	0.0252	1.13	0.0163	3.2	< 0.01	1.92	0.0333	15.4	0.354	–	–	< 0.0124	–	–	–	< 0.01	0.0699	< 0.01	0.184	2.18
CCCCCCCCCCCCCCCC[N+]1(CC)CCCC1	–	–	0.432	1.87	–	–	0.73	2.04	–	1.33	4.43	–	–	1.02	3.05	0.474	1.72	0.361	1.4	–
c1ccc(SCCCC(Sc2ccccc2)Sc2ccccc2)cc1	–	> 100	–	> 100	–	> 100	–	> 100	–	–	> 100	–	> 100	–	> 100	–	> 100	–	> 100	–
COC(=O)/C(=N\NC(=O)c1ccccc1O)C(C#N)c1ccc(Cl)cc1 (stereo not given)	–	–	–	> 100	–	> 100	–	> 100	–	–	> 100	–	> 100	–	–	–	> 100	–	> 100	> 100
CCN(CC)CCOc1ccc(/C=C2\C[C@H]3[C@@H]4CC=C5C[C@@H](OC(C)=O)CC[C@]5(C)[C@H]4CC[C@]3(C)[C@H]2OC(C)=O)cc1OC	1.4	24.2	14.9	> 50	11.4	22.7	9.65	21.4	14.8	9.19	19.2	8.17	28.4	–	–	7.62	17.2	9.76	18.6	> 50
CCC1OCCN1C(C)C (stereo not given)	–	> 100	–	> 100	–	> 100	–	> 100	–	–	> 100	–	> 100	–	> 100	–	–	–	> 100	–
O=C(OCc1ccccc1CN1CCOCC1)c1ccc(Br)cc1	–	49.7	–	> 100	–	> 100	–	–	–	–	> 100	–	–	–	> 100	–	> 100	–	> 100	44.2
O=C(N[C@@H]1CCCc2ccccc21)[C@H](CCC(=O)N1CCN(C2CCCCC2)CC1)N1C(=O)[C@@H](N2C(=O)OC[C@@H]2c2ccccc2)[C@H]1/C=C/c1ccccc1	1.54	5.34	2.44	41.3	4.58	18.9	2.62	11.6	1.99	2.78	22.1	–	–	3.02	14	1.47	3.31	1.8	4.68	5.21
